These results are taken from patent US20030165458A1, “Diagnosis, prevention, amelioration and/or treatment of disturbed immune function induced by disturbed lipid metabolism” (priority 2000, published 2003).

Experiment [1] relates to Complement Lipid Pathway (CliP). Description: MBL in-vitro assay: MBL-dependent complement activation in human serum, hemolysis of heterologous chicken erythrocytes. It counts as biochemical. As to conditions: results summarized in FIG. 9. How it is done:
Experimental procedure: Chylomicrons were isolated from human serum by ultra centrifugation and purified by column chromatography. The purified chylomicron fractions were added to MBL-positive serum (from healthy human subjects) and MBL-negative serum (from MBL-deficient human subjects) and purified heterologous chicken erythrocytes were added. Complement activation was allowed to occur at 37° C. for 45 min. after which, the extend of hemolysis was evaluated by spectrophotometrical determination of hemoglobin levels in serum supernatants.
Using the MBL in-vitro assay, we identified, as an example, the components from olive oil and soy oil inducing Complement Lipid Pathway (CliP)-activation.

The nature of experiment [2]: Standardized oral fat load with and without vitamin A in healthy volunteers. It counts as in vivo, human. How it is done: Experimental procedure: Fasting venous blood was drawn and Sudan Black staining as described in example 2 was carried out (left panel of FIG. 7). In the right panel of FIG. 7, venous blood of the same healthy volunteer was drawn 4 hours after administration of a standardized oral fat load. In the oral RP-fat loading test, cream is used as fat source; this is a 40% (w/v) fat emulsion with a P/S ratio of 0.06, which contains 0.001% (w/v) cholesterol and 2.8% (w/v) carbohydrates. After an overnight fast of 12 h, the subjects ingest the fresh cream, to which 120.000 U of aqueous RP (Retinyl palmitate =vitamin A) had been added 18 h before the test, in a dose of 50 g per m^2 body surface. After the ingestion of the fat load, subjects were only allowed to drink water or tea during the following 24 h. Peripheral blood samples were obtained in sodium EDTA (2 mg/ml) before (T=0), at hourly intervals up to 10 h and at 12 and 24 h after the meal. Tubes were protected against light by aluminum foil and centrifuged immediately for 15 min at 800×g at 4° C. […]
Experimental procedure: Standardized oral fat loading tests (oral RP fat loading test) were performed in volunteers and patients and plasma C3 levels were determined nephelometrically at regular intervals. Complement component 3 was measured by nephelometry (Dade Behring Nephelometry type II). […]

Consider `CCCCCCCCCCCCCCCC(=O)OC/C=C(C)/C=C/C=C(C)/C=C/C1=C(C)CCCC1(C)C` [vitamin A, Retinyl palmitate], for which the CLiP-induction result in experiment [1] is reported as “strong CLiP-induction”. Moreover, in experiment [2] (20 healthy volunteers, oral fat load with vs without vitamin A, after 2 h (FIG. 11A)), the “postprandial plasma C3 increase” value was “significantly higher”. The “plasma triglyceride increase 2 h after acute oral fat load” value in experiment [2] (healthy volunteers, fat load with vs without vitamin A (FIG. 11B)) was “reduction”.
